The test deals with Growth factor receptor-bound protein 2 (Homo sapiens, UniProt P62993). Put plainly: Inhibition of Grb-SH2 domain binding to phosphorylated carboxy-terminal intracellular domain of epidermal growth factor receptor. It is filed as cell-based.

Structures are written as SMILES.

Sequence of Growth factor receptor-bound protein 2 (P62993 whole entry, the tested form may be a part): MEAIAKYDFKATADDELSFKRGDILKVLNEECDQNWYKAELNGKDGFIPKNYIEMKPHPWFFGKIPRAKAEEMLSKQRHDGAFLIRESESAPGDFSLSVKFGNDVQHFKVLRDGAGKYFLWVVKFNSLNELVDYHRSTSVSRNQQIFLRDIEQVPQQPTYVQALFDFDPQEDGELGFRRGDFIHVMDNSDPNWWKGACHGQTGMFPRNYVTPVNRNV

The term IC50 denotes the concentration at which inhibition is half-maximal. Read a low IC50 as greater potency. In turn, `CC(=O)N[C@@H](Cc1ccc(CP(=O)(O)O)cc1)C(=O)NC1(C(=O)N[C@@H](CC(N)=O)C(=O)NCCCn2ccc3cc(Cl)ccc32)CCCCC1` showed an IC50 of 59 nM.
As for `CC(=O)N[C@@H](Cc1ccc(CP(=O)(O)O)cc1)C(=O)NC1(C(=O)N[C@@H](CC(N)=O)C(=O)NCCCn2ccc3ccccc32)CCCCC1`, the figure is 1.2 nM; as for `COc1ccc2c(CCCNC(=O)[C@H](CC(N)=O)NC(=O)C3(NC(=O)[C@H](Cc4ccc(CP(=O)(O)O)cc4)NC(C)=O)CCCCC3)c[nH]c2c1`, 14 nM; as for `CC(=O)N[C@@H](Cc1ccc(CP(=O)(O)O)cc1)C(=O)NC1(C(=O)N[C@@H](CC(N)=O)C(=O)NCCCc2c[nH]c3ccccc23)CCCCC1`, 155 nM.
As for `CC(=O)N[C@@H](Cc1ccc(CP(=O)(O)O)cc1)C(=O)NC1(C(=O)N[C@@H](CC(N)=O)C(=O)NCCCn2ccc3cc(C)ccc32)CCCCC1`, the figure is 0.4 nM.
As for `CC(=O)N[C@@H](Cc1ccc(CP(=O)(O)O)cc1)C(=O)NC1(C(=O)N[C@@H](CC(N)=O)C(=O)NCCCn2cc(C)c3ccccc32)CCCCC1`, the figure is 81 nM; as for `CC(=O)N[C@@H](Cc1ccc(CP(=O)(O)O)cc1)C(=O)NC1(C(=O)N[C@@H](CC(N)=O)C(=O)NCCCn2c(C)cc3ccccc32)CCCCC1`, 14.7 nM.
`CC(=O)N[C@@H](Cc1ccc(CP(=O)(O)O)cc1)C(=O)NC1(C(=O)N[C@@H](CC(N)=O)C(=O)NCCCn2ccc3cc(N(C)C)ccc32)CCCCC1` yielded an IC50 of 3.4 nM.
In the case of `COc1ccc2c(ccn2CCCNC(=O)[C@H](CC(N)=O)NC(=O)C2(NC(=O)[C@H](Cc3ccc(CP(=O)(O)O)cc3)NC(C)=O)CCCCC2)c1` it was 0.9 nM.
In the case of `CC(=O)N[C@@H](Cc1ccc(CP(=O)(O)O)cc1)C(=O)NC1(C(=O)N[C@@H](CC(N)=O)C(=O)NCCCc2cn(C)c3ccccc23)CCCCC1` it was 9.2 nM; in that of `CC(=O)N[C@@H](Cc1ccc(CP(=O)(O)O)cc1)C(=O)NC1(C(=O)N[C@@H](CC(N)=O)C(=O)NCCCn2ccc3cc(O)ccc32)CCCCC1`, 0.3 nM.

Source of the values: ChEMBL document CHEMBL1132020, “Highly potent inhibitors of the Grb2-SH2 domain” (Bioorg Med Chem Lett, 1999).
